The source of these data is article PMC12059926, “Development and Biological Assessment of Thiazole-Based Pyridines for Targeted Therapy in Lung Cancer” (ACS Omega, 2025).

Values after ≈ are worked out from the molar mass of the structure shown.

For test [1], the system named is L929 (mouse fibroblast cell line). The test is described as follows: MTT cytotoxicity assay on L929 healthy cells. The test is classed as cell-based. To be noted: mean ± SD. How it is done:
(§1) The synthesized final compounds (2a–2o) were initially evaluated for their cytotoxic effects to assess their anticancer activity against A549 lung cancer cells. The healthy cell line L929 (mouse fibroblast cell line) was also used to determine the selective antiproliferative properties of the compounds.
(§2) The human lung cancer cell line A549 and mouse fibroblast cell line L929 were used to evaluate the cytotoxicity of the compounds. Cells propagated under the specified conditions were cultured in 96-well plates at 5 × 10^3 cells/well. […] At the end of the incubation period, cell viability was determined by measuring the absorbance of the purple color formed by the breakdown of the MTT dye at 540 nm. Half-maximal inhibitory concentrations (IC50) were determined based on the tested concentrations of the compounds. The tests were triplicated.[38] The MTT assay for cytotoxicity of compounds was determined according to previously published procedures.[39],[40]
(§3) The concentration that inhibits 50% of the cell population was calculated as IC50 using GraphPad Prism 9.0 statistical software program, and standard deviation values were analyzed. Data are expressed as mean ± SD. Comparisons were made using one-way ANOVA for continuous variables with normal distribution, and Tukey’s test was used for post hoc analysis of group differences. p < 0.05 was considered statistically significant.
(§4) The cell viability value of the control group was considered 100%, and all viability values were calculated using the formula below. The experiment was performed in 3 replicates. [drawing 2]

The target in test [2] is T1, MMP-9 enzyme (Homo sapiens, UniProt P14780).
T1 construct: purchased Enzo Life Sciences Inc. (Farmingdale, NY, USA)
T1 sequence (P14780 107-444 limits assumed): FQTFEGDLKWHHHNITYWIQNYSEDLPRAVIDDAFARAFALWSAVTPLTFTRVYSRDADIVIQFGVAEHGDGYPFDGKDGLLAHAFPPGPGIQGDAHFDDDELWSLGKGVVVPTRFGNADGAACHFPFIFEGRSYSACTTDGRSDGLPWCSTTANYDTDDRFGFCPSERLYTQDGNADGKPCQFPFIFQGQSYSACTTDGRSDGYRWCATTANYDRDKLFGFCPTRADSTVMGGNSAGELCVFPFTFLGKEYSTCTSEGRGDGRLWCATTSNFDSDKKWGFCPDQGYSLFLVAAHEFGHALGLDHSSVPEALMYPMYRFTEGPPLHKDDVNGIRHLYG
The experiment in a line: MMP-9 enzyme inhibition, colorimetric kit. To be noted: for inhibition at 100 µM: compounds at 100 μM, mean ± SD; for MMP-9 inhibition, result in words: compared with 2f. The format is biochemical. How it is done:
Compounds (2a–2o) were tested to determine their MMP-9 enzyme inhibition potential. The compounds were tested at a concentration of 100 μM, and the standard molecule NNGH at a concentration of 1.3 μM.
MMP-9 inhibition was assessed using a colorimetric kit from Enzo Life Sciences Inc. (Farmingdale, NY, USA), following procedures similar to those described in previous studies.[25],[26] A thiopeptide was used as a chromogenic substrate (Ac-PLG-[2-mercapto-4-methyl-pentanoyl]-LG-OC2H5). 2-Nitro-5-thiobenzoic acid, formed by the reaction of the sulfhydryl group produced as a result of hydrolysis of the thioester by the MMP-9 enzyme and then reaction with DTNB [5,5′-dithiobis(2-nitrobenzoic acid), Ellman’s reagent], gives absorbance at 412 nm in a microplate reader (BioTek, PowerWave, Gen5 software, Winooski, VT, USA). Based on these absorptions, MMP-9 inhibition concentrations were determined. The assays were performed in triplicate. NNGH (N-isobutyl-N-(4-methoxyphenylsulfonyl)glycyl hydroxamic acid) was used as a control inhibitor. Data were shown as mean ± SD. The inhibitor % remaining activity of MMPs was calculated using the following equation:
Inhibitor% activity remaining = (V inhibitor/V control) × 100.
The inhibition (percent) of MMPs was calculated using the following equation: [drawing 1]

For test [3], the system named is A549 lung cancer cell line. The experiment in a line: MTT cytotoxicity assay on A549 lung cancer cells. The test is classed as cell-based, human. The note with it: for IC50: Homo sapiens, A549 cells, MTT, mean ± SD; for SI: selectivity index: L929 versus A549. As for the experimental part:
as §1, §2, §3, §4
A general note: Formazan colour is commonly taken as a measure of viable cells.

As a reminder, the IC50 is the midpoint of a concentration-inhibition curve. A higher IC50 goes with a need for much substance. The inhibition is the share of the control response that was lost under treatment.

Regarding `COc1ccc(OC)c(-c2csc(NN=Cc3cccnc3)n2)c1` [Compound 2f, 4-(2,5-Dimethoxyphenyl)-2-(2-(pyridin-3-ylmethylene)hydrazinyl)thiazole], the 50% inhibitory concentration (IC50) in test [1] was determined as 14 ± 0.57 µg/mL (≈ 41 µM); in test [3] it was 4.04 ± 0.29 µg/mL (≈ 11.9 µM). Moreover, in test [2], testing at 100 µM gave an inhibition of 70.8 ± 2.2%.

`COc1ccc(OC)c(-c2csc(NN=Cc3ccccn3)n2)c1` [Compound 2a, 4-(2,5-Dimethoxyphenyl)-2-[2-(pyridin-2 ylmethylene)hydrazinyl]thiazole] had an IC50 in test [1] of 4.36 ± 0.32 µg/mL (≈ 12.8 µM). Also, the “MMP-9 inhibition, result in words” value in test [2] is “less active than 2f (2,5-dimethoxypehnyl) or inactive”. In test [3], the IC50 was found to be 7.3 ± 0.33 µg/mL (≈ 21.4 µM) and the “SI: selectivity index” value is 0.60.

`Clc1ccc(-c2csc(NN=Cc3ccccn3)n2)cc1Cl` [Compound 2e, 4-(3,4-Dichlorophenyl)-2-(2-(pyridin-2-ylmethylene)hydrazinyl)thiazole] yielded an IC50 in test [1] of 4.87 ± 0.3 µg/mL (≈ 13.9 µM). For the same molecule, the inhibition at 100 µM in test [2] is 30.3 ± 2.64%. Further, in test [3], the 50% inhibitory concentration (IC50) is 4.56 ± 0.31 µg/mL (≈ 13.1 µM) and the “SI: selectivity index” value amounted to 1.07.

Take `COc1ccc(OC)c(-c2csc(NN=Cc3ccncc3)n2)c1` [Compound 2k, 4-(2,5-Dimethoxyphenyl)-2-(2-(pyridin-4-ylmethylene)hydrazinyl)thiazole]: the half-maximal inhibitory concentration (IC50) in test [1] was 8.59 ± 0.32 µg/mL (≈ 25.2 µM). In test [2], the “MMP-9 inhibition, result in words” value is “less active than 2f (2,5-dimethoxypehnyl) or inactive”. Further, in test [3], the 50% inhibitory concentration (IC50) was 6.07 ± 0.31 µg/mL (≈ 17.8 µM) and the “SI: selectivity index” value amounted to 1.42.
